Data from patent US7626044B2, “Triptolide derivatives and their uses” (priority 2002, dated 2009).

Columns and labels:
[1] = tested on: DNFB-induced mouse DTH response; assay: DNFB-induced mouse delayed type hypersensitivity response (DTH); type: in vivo; details: Table 8, i.p., Balb/c mice, dosage 1000 (mg/kg)
Method: Female Balb/c mice (age of 6-8 wk) were randomly divided into groups and immunized with 20 μl 0.5% DNFB solution in absolute acetone-olive oil (4:1) on each hind foot on day 0 and 1;
7-9 days after the initial immunization, mice were boosted with 10 μl 0.4% DNFB on both sides of the left ear, whereas the right ear was treated with vehicle alone;
Compounds were administered intraperitoneally (i.p.) or orally (p.o.) to the mice 1 h before DNFB booster immunization and 12 h later.
Ear swelling and other indexes were assessed 24-48 h after booster immunization.
Note: Female ICR mice (age of 6-8 wk) were immunized with 0.7% DNFB solution and boosted with 0.6% DNFB solution.

[2] = tested on: anti-SRBC specific antibodies production by B lymphocytes; type: in vivo, mouse; details: Table 12, positive control given i.p., ICR mice, dosage 4 mg/kg
lymphocyte = assay: MTT cytotoxic assay; type: cell-based, mouse; details: control 0.337
Method: Mice were sacrificed by cervical dislocation, and spleens were collected under sterile conditions then teased through a nylon mesh. Erythrocytes were lysed. Cells were washed and resuspended at 5×10^6/ml in RPMI-1640 media supplemented with 10% FBS.
For one 96 well plate assay, 90 μl of cells, 45 μl of sample and 45 μl of RPMI-1640 media with 10% FBS were added into each well with the final volume 180 μl. The negative control wells (containing 90 μl of RPMI-1640 media with 10% FBS and 90 pt of cells), blank control (180 μl of RPMI-1640 media with 10% FBS) were also performed. Incubate plate for 48 hours at 37° C., 5% CO2 in a humidified incubator. 18 μl of MTT solution (5 mg/ml) was added for 6-7 h.
90 μl of MTT lysis solution was added to each well followed by a further incubation at 37° C. for 6-7 h. And the absorbance was measured at 570 nm using a plate reader.

B lymphocyte = assay: LPS induced B-lymphocyte proliferation ([3H]thymidine); type: cell-based, mouse; details: control 87373
Method: (§1) Mice were sacrificed by cervical dislocation, and spleens were collected under sterile conditions then teased through a nylon mesh. Erythrocytes were lysed. Cells were washed and resuspended at 5×10^6/ml in RPMI-1640 media containing 10% FBS. For one 96 well plate assay, 100 pt of cells, 50 μl of sample and 50 μl of ConA/LPS were added into each well with the final volume 200 μl. The control wells were set up with 50 μl of RPMI-1640 media instead of ConA/LPS.
(§2) Plates were incubated for 48 h (ConA) or 60 h (LPS), respectively, at 37° C., 5% CO2 in a humidified incubator. In the last 8 h of incubation, 25 μl (1.9×10^10 Bq) of [^3H]thymidine was added. After plates were incubated for 48 h, the plates (ConA) were stored at −20° C., then after another 12 h, the plates (LPS) were stored at −20° C.
(§3) At the end of incubation, pulsed cells were harvested on a glass filter using a cell harvester ([…]96®, TOMTEC) and allowed to dry. Incorporation of radioactive thymidine was determined by using liquid Scintillation and Luminescence Counters (MicroBeta Trilux®, PerkinElmer).

T lymphocyte = assay: ConA induced T-lymphocyte proliferation ([3H]thymidine); type: cell-based, mouse; details: control 125789
Method: as §1, §2, §3

Row | SMILES | melting point | Cytotoxicity OD Value (lymphocyte; 10^−6 M) | Cytotoxicity OD Value (lymphocyte; 10^−7 M) | Cytotoxicity OD Value (lymphocyte; 10^−8 M) | Lymphocyte Proliferation (cpm) B cell (B lymphocyte; 10^−6 M) | Lymphocyte Proliferation (cpm) B cell (B lymphocyte; 10^−7 M) | Lymphocyte Proliferation (cpm) B cell (B lymphocyte; 10^−8 M) | Lymphocyte Proliferation (cpm) T cell (T lymphocyte; 10^−6 M) | Lymphocyte Proliferation (cpm) T cell (T lymphocyte; 10^−7 M) | Lymphocyte Proliferation (cpm) T cell (T lymphocyte; 10^−8 M) | further results
1 | O=P1(N(CCCl)CCCl)NCCCO1 (stereo not drawn) [CTX, reference compound] | – | – | – | – | – | – | – | – | – | – | Body weight after i.p. ([1]; control 21.9): 21.1 g; Body weight before i.p. ([1]; control 22.4): 22.1 g; Ear swelling X ± SD ([1]; control 22.7 ± 2.1): 15.6 ± 8.1 mg; Right ear ([1]; control 26.4): 30.3 mg; Left ear ([1]; control 49.1): 45.9 mg; Spleen ([1]; control 154.0): 141.2 mg; QHS OD value ([2]; control 0.38): 0.12; C3 ([2]; control 7.9): 7.5 μg/10 μl; Body weight ([2]; control 23.4): 22.6 g; Thymus ([2]; control 28.8): 28.2 mg; Spleen ([2]; control 55.7): 50.7 mg/10 g; Total IgG ([2]; control 117): 101 μg/10 μl
2 | CC(C)[C@]12O[C@H]1[C@@H]1O[C@@]13[C@@]1(C)CCC4=C(COC4=O)C1=C[C@@H]1O[C@@]13C2=O [LLDT-15, Δ^5,6-dehydrotriptonide] | 242 to 244 °C (dec.) | 0.156 | 0.316 | 0.327 | 30889 cpm | 85240 cpm | 77139 cpm | 10296 cpm | 63914 cpm | 69613 cpm | –
3 | CC(C)[C@]12O[C@H]1[C@@H]1O[C@@]13[C@@]1(C)CCC4=C(COC4=O)[C@@]14O[C@H]4[C@@H]1O[C@@]13C2=O [LLDT-16, (5R, 6S)-5,6-epoxytriptonide] | 252 to 254 °C (dec.) | 0.304 | 0.337 | 0.372 | 80768 cpm | 82285 cpm | 71877 cpm | 76204 cpm | 75599 cpm | 89029 cpm | –
4 | CC(C)[C@]12O[C@H]1[C@@H]1O[C@@]13[C@@]1(C)CCC4=C(COC4=O)[C@]1(O)[C@@H](O)[C@@H]1O[C@@]13C2=O [LLDT-17, cis-(5R, 6S)-5,6-dihydroxytriptonide] | 266 to 268 °C (dec.) | 0.310 | 0.355 | 0.334 | 82861 cpm | 76376 cpm | 73969 cpm | 84825 cpm | 67561 cpm | 74069 cpm | –
5 | CC(C)C12OC1C1OC13C1(C)CCC4=C(COC4=O)C1=CC1OC13C2O (stereo not drawn) [LLDT-18, Δ^5,6-dehydrotriptolide] | – | 0.039 | 0.295 | 0.367 | 833 cpm | 75147 cpm | 79808 cpm | 462 cpm | 53513 cpm | 92807 cpm | –
6 | CC(C)[C@]12O[C@H]1[C@@H]1O[C@]13[C@]1(O[C@H]1C=C1C4=C(CC[C@@]13C)C(=O)OC4)[C@H]2O [LLDT-19, Δ^5,6-dehydro-14-epitriptolide] | – | 0.340 | 0.340 | 0.346 | 82989 cpm | 70587 cpm | 69690 cpm | 79418 cpm | 71177 cpm | 76183 cpm | –
7 | CC(C)C12OC1C1OC13C1(OC1C1OC14C1=C(CCC43C)C(=O)OC1)C2O [LLDT-20, (5R, 6S)-5,6-epoxytriptolide] | – | 0.263 | 0.350 | 0.374 | 63169 cpm | 85145 cpm | 78259 cpm | 25344 cpm | 54771 cpm | 69785 cpm | –
8 | CC(C)[C@]12O[C@H]1[C@@H]1O[C@]13[C@]1(O[C@H]1[C@@H]1O[C@@]14C1=C(CC[C@]34C)C(=O)OC1)[C@H]2O [LLDT-21, (5R, 6S)-5,6-epoxy-14-epitriptolide] | – | 0.361 | 0.332 | 0.359 | 86610 cpm | 75766 cpm | 76181 cpm | 97217 cpm | 73513 cpm | 83465 cpm | –
9 | CC(C)C12OC1C1OC13C1(OC1C(O)C1(O)C4=C(CCC13C)C(=O)OC4)C2O [LLDT-22, cis-(5R, 6S)-5,6-dihydroxytriptolide] | – | 0.157 | 0.345 | 0.374 | 16807 cpm | 89706 cpm | 84748 cpm | 2662 cpm | 68787 cpm | 64367 cpm | –
10 | CC(C)C12OC1C1OC13C1(OC1C(O)C1(O)C4=C(CCC13C)C(=O)OC4)C2O [LLDT-23, cis-(5R, 6S)-5,6-dihydroxy-14-epitriptolide] | – | 0.302 | 0.349 | 0.366 | 99672 cpm | 86481 cpm | 76993 cpm | 55614 cpm | 104791 cpm | 84713 cpm | –
